Experimental data from BindingDB's records for doi:10.1016/s0960-894x(02)00602-9 (Bayer, 2002).
Blank lines part the entries; values can stand above or below the compound they belong to.

Legend:
[1] = Concentration required to inhibit human recombinant PARP-1 was determined using cell protection assay
[2] = Concentration required to inhibit human recombinant Poly (ADP-ribose) polymerase 1 was determined using cell protection assay
[3] = as above; remark: listed apart in the source

Compound: Nc1cccnc1N1CCN(C(=O)CNC(=O)CCn2c3c(c(=O)[nH]c2=O)CSCC3)CC1 [N-{2-[4-(3-Amino-pyridin-2-yl)-piperazin-1-yl]-2-oxo-ethyl}-3-(2,4-dioxo-3,4,7,8-tetrahydro-2H,5H-thiopyrano[4,3-d]pyrimidin-1-yl)-propionamide]
EC50 [2]: 0.7 µM

Compound: Nc1cccc(-c2ccc(C(=O)CNC(=O)CCn3c4c(c(=O)[nH]c3=O)CSCC4)cc2)c1 [N-[2-(3'-Amino-biphenyl-4-yl)-2-oxo-ethyl]-3-(2,4-dioxo-3,4,7,8-tetrahydro-2H,5H-thiopyrano[4,3-d]pyrimidin-1-yl)-propionamide]
EC50 [2]: 0.07 µM

Compound: O=C(CCn1c2c(c(=O)[nH]c1=O)CSCC2)NCC(=O)c1ccc(Cl)cc1 [N-[2-(4-Chloro-phenyl)-2-oxo-ethyl]-3-(2,4-dioxo-3,4,7,8-tetrahydro-2H,5H-thiopyrano[4,3-d]pyrimidin-1-yl)-propionamide]
EC50 [2]: 0.5 µM

Compound: O=C(CCn1c2c(c(=O)[nH]c1=O)CSCC2)NCC(=O)N1CCN(c2cc(C(F)(F)F)ccn2)CC1 [3-(2,4-Dioxo-3,4,7,8-tetrahydro-2H,5H-thiopyrano[4,3-d]pyrimidin-1-yl)-N-{2-oxo-2-[4-(4-trifluoromethyl-pyridin-2-yl)-piperazin-1-yl]-ethyl}-propionamide]
EC50 [2]: 0.1 µM

Compound: O=C(CCn1c2c(c(=O)[nH]c1=O)CSCC2)NCC(=O)c1ccc(OC(F)F)cc1 [N-[2-(4-Difluoromethoxy-phenyl)-2-oxo-ethyl]-3-(2,4-dioxo-3,4,7,8-tetrahydro-2H,5H-thiopyrano[4,3-d]pyrimidin-1-yl)-propionamide]
EC50 [1]: 0.2 µM

Compound: O=C(CCn1c2c(c(=O)[nH]c1=O)CSCC2)NCC(=O)N1CCN(c2ncccc2C(F)(F)F)CC1 [3-(2,4-Dioxo-3,4,7,8-tetrahydro-2H,5H-thiopyrano[4,3-d]pyrimidin-1-yl)-N-{2-oxo-2-[4-(3-trifluoromethyl-pyridin-2-yl)-piperazin-1-yl]-ethyl}-propionamide]
EC50 [1]: 0.1 µM

Compound: O=C(CCn1c2c(c(=O)[nH]c1=O)CSCC2)NCC(=O)c1cccc(Br)c1 [N-[2-(3-Bromo-phenyl)-2-oxo-ethyl]-3-(2,4-dioxo-3,4,7,8-tetrahydro-2H,5H-thiopyrano[4,3-d]pyrimidin-1-yl)-propionamide]
EC50 [1]: 3.5 µM

Compound: O=C(CCn1c2c(c(=O)[nH]c1=O)CSCC2)NCC(=O)N1CCN(c2ccccc2)CC1 [3-(2,4-Dioxo-3,4,7,8-tetrahydro-2H,5H-thiopyrano[4,3-d]pyrimidin-1-yl)-N-[2-oxo-2-(4-phenyl-piperazin-1-yl)-ethyl]-propionamide]
EC50 [3]: 0.1 µM

Next, values leading:

EC50 [1]: 0.5 µM
Compound: O=C(CCn1c2c(c(=O)[nH]c1=O)CSCC2)NCC(=O)c1ccc(-c2ccccc2)cc1 [N-(2-Biphenyl-4-yl-2-oxo-ethyl)-3-(2,4-dioxo-3,4,7,8-tetrahydro-2H,5H-thiopyrano[4,3-d]pyrimidin-1-yl)-propionamide]

EC50 [2]: 0.08 µM
Compound: O=C(CCn1c2c(c(=O)[nH]c1=O)CSCC2)NCC(=O)c1ccc2ccccc2c1 [3-(2,4-Dioxo-3,4,7,8-tetrahydro-2H,5H-thiopyrano[4,3-d]pyrimidin-1-yl)-N-(2-naphthalen-2-yl-2-oxo-ethyl)-propionamide]

EC50 [2]: 0.1 µM
Compound: O=C(CCn1c2c(c(=O)[nH]c1=O)CSCC2)NCC(=O)N1CCN(c2ccccn2)CC1 [3-(2,4-Dioxo-3,4,7,8-tetrahydro-2H,5H-thiopyrano[4,3-d]pyrimidin-1-yl)-N-[2-oxo-2-(4-pyridin-2-yl-piperazin-1-yl)-ethyl]-propionamide]

EC50 [1]: 0.08 µM
Compound: COc1ccc(C(=O)CNC(=O)CCn2c3c(c(=O)[nH]c2=O)CSCC3)cc1 [3-(2,4-dioxo-2,3,4,5,7,8-hexahydro-1H-thiopyrano[4,3-d]pyrimidin-1-yl)-N-(2-(4-methoxyphenyl)-2-oxoethyl)propanamide]
